Assay results from patent US20240082342A1, “PEPTIDE THERAPEUTICS FOR INCREASING LUNG CELL VIABILITY” (BOARD OF REGENTS, THE UNIVERSITY OF TEXAS SYSTEM, priority 2018, published 2024).
“Also recorded” adds a separate entry of the source.

Columns and labels:
[1] = system: A2ECs treated with IL-17A; experiment: A2ECs exposed to IL-17A in vitro; format: cell-based, mouse; settings: for IL-17A-induced p53 and PAI-1 expression, and apoptosis: A2ECs from WT mice, IL-17A 100 ng/ml
Procedure: FIGS. 49A-49B show the role of IL-17A in PTS-induced p53, PAI-1 expression, and apoptosis in A2ECs. (A) IL-17A^−/− mice resist PTS-induced p53 expression and apoptosis in A2ECs. Mice were kept in ambient AIR or exposed to 20 weeks of PTS. A2ECs isolated from WT and IL-17A^−/− mice in AIR or exposed to PTS were analyzed for acetylated/total p53, Sirt1 and activated caspase-3 to assess apoptosis by Western blotting. (B) CSP inhibits IL-17A-induced p53 and PAI-1 expression and apoptosis in A2ECs in vitro. A2ECs isolated from WT mice were treated with PBS or IL-17A (100 ng/ml) in the presence or absence of CSP or control peptide, CP for 24 h in culture dishes. A2EC lysates were immunoblotted for p53, PAI-1, Cl./total caspase-3 and β-actin. WT mice exposed to IL-17A (FIG. 48D) and PTS (FIG. 46A) induce p53 acetylation and Cav1 expression, while inhibiting Sirt1 in A2ECs.
FIGS. 58A-58B show a 7-amino acid fragment of CSP, CSP7 Inhibits IL-17A-induced A2EC apoptosis. (A) Fragments of CSP were synthesized as shown. (B) A2ECs were treated with CSP or its fragments, or CP, 2 h after exposure of cells to IL-17A. A2EC lysates were immunoblotted for acetylated/total p53 and active/total caspase-3 24 h after IL-17A exposure. β-actin levels were evaluated to assess equal loading.
Increased p53 and apoptosis in A2ECs of mice exposed to PTS or IL-17A provided evidence that PTS acts by increasing IL-17A. To confirm that increased IL-17A contributes to the induction of p53 and PAI-1 expression, and apoptosis in A2ECs during PTS-induced lung injury, IL-17A-deficient mice were exposed to 20 weeks of PTS and control mice were kept in ambient air. A2ECs were tested for p53^AC, p53 and Sirt1 expression, and apoptosis. The responses were compared with changes in A2ECs isolated from WT mice exposed to 20 weeks of PTS or AIR. There was marked induction of p53^AC and p53 levels, and apoptosis with parallel suppression of Sirt1 expression in WT mice exposed to 20 weeks of PTS. […] To confirm mitigation of PTS induced lung injury by CSP or CSP7 involves suppression of IL-17A-induced p53, PAI-1 and apoptosis, A2ECs isolated from WT mice were next treated with IL-17A (100 ng/ml) with or without CSP, CSP7 or CP. Control cells were treated with vehicle (PBS) alone. The A2EC lysates were tested for p53 and p53-mediated downstream induction of PAI-1, and apoptosis. […] Further, induction of miR-34a increased p53 and apoptosis in A2ECs without exposure to tobacco smoke, while inhibition of miR-34a using miR-34a antisense (miR-34a-AS) reduced cigarette smoke induced p53 expression and apoptosis. Results of both in vitro and in vivo experiments support an intricate link between miR-34a, p53^AC, p53 and p53-mediated induction of PAI-1 expression, and A2EC apoptosis during PTS lung injury.

[2] = system: A2Cs of WT mice with 8X-BLM-induced PF; experiment: Repeated bleomycin (8X-BLM) induced PF in WT mice, A2C telomere analyses; format: in vivo, mouse
Procedure: To analyze the effect of BLM, mice were exposed to BLM (40 μg/20 g body weight) once per two week for 16 weeks. Control mice were exposed to normal saline. At 14th week the peptide treatment at a dosage of 30 μg/20 g body weight was initiated and continued on a daily basis for the next 14 days. At the end of the experiment, the mice were euthanized and used for the experiments.
To evaluate the effect of CSP7 against chronic BLM-induced PF, the mice were exposed to BLM (40 μg/20 g body weight) once every two weeks for 16 weeks as described elsewhere. (Tiwari et al, 2016). Control mice were exposed to normal saline. Fourteen weeks later the CSP7 at a dosage of 1.5 mg/kg body weight was administered by IP injection and continued daily basis for the next two weeks as described elsewhere. (Tiwari et al, 2016; Shetty et al, 2008b). At the end of the experiment, the mice were euthanized and lung tissues and isolated A2Cs from the extracted lung tissues were used for further analysis.
Detection of telomerase activity. Telomerase activity was detected using a PCR-based telomeric repeat amplification protocol (TRAP) method using the TRAPeze Telomerase Detection Kit (Intergen, Purchase, NY, USA). Briefly, the cells were lysed in CHAPS lysis buffer and quantified by BCA method, and equal quantity of the protein samples was combined with the reaction mix in RNase-free PCR tubes. The PCR amplification was then performed following instruction of the manufacturer. The final PCR product was loaded onto a 12.5% non-denaturing polyacrylamide gel and subjected to electrophoresis. The polyacrylamide gel was stained with ethidium bromide and documented using a gel-doc unit (Bio-Rad Laboratories). The relative quantities of telomerase activity for each sample were calculated according to the instructions provided in the kit.
Measurement of terminal restriction fragment (telomeric) length. For the determination of telomeric length, the TeloTTAGGG Telomere Length Assay Kit (Roche Diagnostics GmbH) was used. Briefly, genomic DNA was isolated and digested with Hinf1/Rsa. The digested DNA fragments were then separated by electrophoresis on agarose gel followed by Southern blot transfer. The membrane was then hybridized with a telomere specific digoxigenin (DIG)-labelled probe, incubated with anti-DIG alkaline phosphatase, and documented with chemiluminescence detection in gel-doc unit (Bio-Rad Laboratories). Telomeric length was identified by comparing with the pre-labelled molecular weight marker. The relative telomere length was calculated according to the protocol provided. In addition, relative telomere length was analyzed by qPCR analysis of the genomic DNA. (Cawthon, Nucleic Acids Res 2002, 30:e47-e47; Alder et al, Proc Natl Acad Sci USA 2015, 112:5099-5104.) The 36B4 gene was served as the control.

WT mice with CS-LI = experiment: Chronic CS/TSE lung injury in WT mice treated by nebulization or IP injection; format: in vivo, mouse

DGIWKASFTTFTVTKYWFYR (listed as Homo sapiens) [CSP, 20 residue caveolin-1 scaffolding domain peptide]
IL-17A-induced p53 and PAI-1 expression, and apoptosis [1]: inhibited IL-17A-induced p53 and PAI-1 expression, and apoptosis

FTTFTVT (listed as Homo sapiens) [CSP7, heptapeptide fragment of the caveolin-1 scaffolding domain peptide CSP]
p53 and caspase-3 activation ([1]; A2ECs + IL-17A, CSP deletion fragments): inhibited p53 and caspase-3 activation | IL-17A-induced p53 and PAI-1 expression, and apoptosis [1]: inhibited IL-17A-induced p53 and PAI-1 expression, and apoptosis | TERT enzyme activity ([2]; 8X-BLM PF): significantly reversed | TRF1, TRF2, PNUTS and TERT expression in A2Cs ([2]; 8X-BLM PF): reversed | p53, PAI-1, SIAH1/2, caspase-3 activation, β-galactosidase in A2Cs ([2]; 8X-BLM PF): suppression | IHC of lung sections for TRF2, p53, PAI-1, TRF1 ([2]; 8X-BLM PF (FIG. 25E)): restoration of TRF2 expression with reduction in p53, PAI-1 and TRF1 | telomere length of A2Cs (qPCR) ([2]; 8X-BLM PF, treated two weeks): improved | Ac-Tub staining in tracheal sections (WT mice with CS-LI; 20 weeks TSE/CS): reversed in CSP7 treated WT mice; also recorded: improved | PAI-1 expression in AT2 cells (WT mice with CS-LI; CS-LI WT mice): reduced | total, acetylated, serine phosphorylated p53, cleaved caspase-3, β-galactosidase in AT2 cells (WT mice with CS-LI; CS-LI WT mice, IP): markedly suppressed | MUC5AC and HDAC6 mRNA in TECs (WT mice with CS-LI; CS-LI mice): significantly reduced | MUC5AC, HDAC6, FOXA3, CAV1 and FOXA2 mRNA in lung (WT mice with CS-LI; CS-LI mice): significant reduction in MUC5AC, HDAC6, FOXA3, and CAV1 mRNA | PP2A and CIP2A mRNA in lung (WT mice with CS-LI; CS-LI mice): reversed | macrophages in bronchoalveolar lavage (WT mice with CS-LI; CS-LI mice): significantly reduced | number of ciliated (Ac-Tub positive) tracheal epithelial cells (WT mice with CS-LI; MTEC/TECs isolated from treated mice): reversal; also recorded: significantly reversed; also recorded: increased the number of ciliated TECs | H&E alveolar damage / mean linear intercept (MLI) (WT mice with CS-LI; Neb and IP): reversed; also recorded: significantly (P<0.0001) reduced | IHC Ac-Tubulin, LC3 (and CAV1) in lung sections (WT mice with CS-LI; Neb and IP): reversed in CSP7 (Neb and IP) treated WT mice | IHC Cav1 expression in lung sections (WT mice with CS-LI; Neb and IP): overcome | IHC MUC5AC and HDAC6 staining in lung sections (WT mice with CS-LI; Neb or IP): reversed; also recorded: remarkably improved; also recorded: markedly reduced | MUC5AC, HDAC6, SPDEF, LC3, FOXA2, Ac-tubulin in lung homogenates (WT mice with CS-LI; Neb or IP): alleviated TSE MUC5AC and HDAC6 expression; also recorded: reversed | co-localization of MUC5AC and HDAC6 in lung sections (WT mice with CS-LI; Neb or IP): reversed; also recorded: markedly reduced in those treated with CSP7 | CAV1, p53 and PAI-1 in lung homogenates (WT mice with CS-LI; via airways or systemically): marked inhibition of CAV1, p53, and PAI-1

WGIDKAFFTTSTVTYKWFRY [CP, scrambled control peptide with the same amino acid composition as CSP, reference compound]
TERT enzyme activity ([2]; 8X-BLM PF): still displayed shortened telomere | TRF1, TRF2, PNUTS and TERT expression in A2Cs ([2]; 8X-BLM PF): still harbor A2Cs with shortened telomere | H&E alveolar damage / mean linear intercept (MLI) (WT mice with CS-LI; Neb and IP): continued to show 479 alveolar damage | IHC MUC5AC and HDAC6 staining in lung sections (WT mice with CS-LI; Neb or IP): not evident | co-localization of MUC5AC and HDAC6 in lung sections (WT mice with CS-LI; Neb or IP): Increased staining and co-localization
